Test results taken from US20060166900A1, “Salt of morphine-6-glucuronide” (CeNeS Limited, priority 2002, published 2006).

Assays:
Type in all cases: physicochemical
[1] = Stability of M6G salts at room temperature over 6 years, HPLC; details: for Assay M6G corr.: content calculated as M6G derivative
[2] = Stability indicating HPLC assay and related substances on storage (Example 3)
[3] = Water content by Karl Fisher analysis on storage (Example 3)
In short: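 900 mg aliquots were held in argon-flushed brown opaque HDPE bottles at 25 °C/60% RH, 40 °C/75% RH and 60 °C. At each time point, water content (% w/w) was determined in duplicate on about 100 mg of equilibrated material by Karl Fischer titration.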

[4] = Colour of solution by visible spectrophotometry on storage (Example 3); details: 5% w/v solution in water
In short: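 5% w/v aqueous solution, absorbance at 420 nm in a 1 cm silica cell. Samples were stored in argon-flushed brown opaque HDPE bottles at 25° C./60% RH, 40° C./75% RH and 60° C.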

[5] = Visual appearance on storage (Example 3)
In short: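 Aliquots (900 mg) kept at 2-8 °C beforehand were stored in argon-flushed brown opaque HDPE bottles at 25 °C/60% RH, 40 °C/75% RH and 60 °C. Visual appearance was assessed at set time points.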

[6] = almost 6 years at room temperature

What does the source list for `CN1CCC23c4c5ccc(O)c4OC2C(OC2OC(C(=O)O)C(O)C(O)C2O)C=CC3C1C5.CN1CCC23c4c5ccc(O)c4OC2C(OC2OC(C(=O)O)C(O)C(O)C2O)C=CC3C1C5.O=S(=O)(O)O` (centres unmarked) [Morphine-6-glucuronide sulphate]?
HN-33177 ([1]; 0 years): 0.2%; HN-75083 ([1]; 0 years): <0.1%; Unknown related substances (sum area %) ([1]; 0 years): 0.2 area %; Assay M6G corr. ([1]; 0 years): 93.6%; HN-33177 ([1]; 6 years at ambient temperature): 0.3%; HN-67002 ([1]; 6 years at ambient temperature): 1.1%; HN-67003 ([1]; 6 years at ambient temperature): 1.8%; Morphine ([1]; 6 years at ambient temperature): 0.2%; Unknown related substances (sum area %) ([1]; 6 years at ambient temperature): 10.7 area %; Assay M6G corr. ([1]; 6 years at ambient temperature): 76.8%; HN-33177 ([1]; 6 years at ambient temperature, listed as M6G2.H2SO4): did not change; largest unidentified peak [1, 6]: 6.55 area %; peaks present in the chromatogram that cannot be identified by retention time [1, 6]: 13; Known Related Substances HN33177 ([2]; 1 month, 25° C./60% RH): 0.63%; Known Related Substances HN67003 ([2]; 1 month, 25° C./60% RH): 0.69%; Known Related Substances HN75083 ([2]; 1 month, 25° C./60% RH): 0.27%; M6G Assay, Anhydrous basis ([2]; 1 month, 25° C./60% RH): 81.82 % w/w; M6G Assay, As is basis ([2]; 1 month, 25° C./60% RH): 73.58 % w/w; M6G Assay, Corrected for the salt form ([2]; 1 month, 25° C./60% RH): 90.51 % w/w; Total Known ([2]; 1 month, 25° C./60% RH): 1.59%; Total Related Substances ([2]; 1 month, 25° C./60% RH): 4.29%; Total Unknown ([2]; 1 month, 25° C./60% RH): 2.70%; Known Related Substances HN33177 ([2]; 1 month, 40° C./75% RH): 0.50%; Known Related Substances HN67003 ([2]; 1 month, 40° C./75% RH): 1.58%; Known Related Substances HN75076 ([2]; 1 month, 40° C./75% RH): 0.06%; Known Related Substances HN75083 ([2]; 1 month, 40° C./75% RH): 0.74%; Known Related Substances Morphine ([2]; 1 month, 40° C./75% RH): 0.21%; M6G Assay, Anhydrous basis ([2]; 1 month, 40° C./75% RH): 73.67 % w/w; M6G Assay, As is basis ([2]; 1 month, 40° C./75% RH): 65.04 % w/w; M6G Assay, Corrected for the salt form ([2]; 1 month, 40° C./75% RH): 81.50 % w/w; Total Known ([2]; 1 month, 40° C./75% RH): 3.09%; Total Related Substances ([2]; 1 month, 40° C./75% RH): 9.78%; Total Unknown ([2]; 1 month, 40° C./75% RH): 6.69%; Known Related Substances HN33177 ([2]; 1 month, 60° C.): 0.23%; Known Related Substances HN67003 ([2]; 1 month, 60° C.): 2.73%; Known Related Substances HN75076 ([2]; 1 month, 60° C.): 0.26%; Known Related Substances HN75083 ([2]; 1 month, 60° C.): 0.61%; Known Related Substances Morphine ([2]; 1 month, 60° C.): 0.72%; M6G Assay, Anhydrous basis ([2]; 1 month, 60° C.): 63.84 % w/w; M6G Assay, As is basis ([2]; 1 month, 60° C.): 57.15 % w/w; M6G Assay, Corrected for the salt form ([2]; 1 month, 60° C.): 70.62 % w/w; Total Known ([2]; 1 month, 60° C.): 4.55%; Total Related Substances ([2]; 1 month, 60° C.): 18.25%; Total Unknown ([2]; 1 month, 60° C.): 13.70%; Known Related Substances HN33177 ([2]; 3 months, 25° C./60% RH): 0.52%; Known Related Substances HN67003 ([2]; 3 months, 25° C./60% RH): 1.36%; Known Related Substances HN75083 ([2]; 3 months, 25° C./60% RH): 0.53%; Known Related Substances Morphine ([2]; 3 months, 25° C./60% RH): 0.17%; M6G Assay, Anhydrous basis ([2]; 3 months, 25° C./60% RH): 77.05 % w/w; M6G Assay, As is basis ([2]; 3 months, 25° C./60% RH): 69.08 % w/w; M6G Assay, Corrected for the salt form ([2]; 3 months, 25° C./60% RH): 85.24 % w/w; Total Known ([2]; 3 months, 25° C./60% RH): 2.58%; Total Related Substances ([2]; 3 months, 25° C./60% RH): 9.16%; Total Unknown ([2]; 3 months, 25° C./60% RH): 6.58%; Known Related Substances HN33177 ([2]; 3 months, 40° C./75% RH): 0.23%; Known Related Substances HN67003 ([2]; 3 months, 40° C./75% RH): 1.72%; Known Related Substances HN75076 ([2]; 3 months, 40° C./75% RH): 0.04%; Known Related Substances HN75083 ([2]; 3 months, 40° C./75% RH): 0.58%; Known Related Substances Morphine ([2]; 3 months, 40° C./75% RH): 0.37%; M6G Assay, Anhydrous basis ([2]; 3 months, 40° C./75% RH): 68.38 % w/w; M6G Assay, As is basis ([2]; 3 months, 40° C./75% RH): 59.39 % w/w; M6G Assay, Corrected for the salt form ([2]; 3 months, 40° C./75% RH): 75.64 % w/w; Total Known ([2]; 3 months, 40° C./75% RH): 2.75%; Total Related Substances ([2]; 3 months, 40° C./75% RH): 17.98%; Total Unknown ([2]; 3 months, 40° C./75% RH): 15.23%; stability assessment ([2]; 25° C./60% RH, three months): least stable; Known Related Substances HN33177 ([2]; Initial): 0.69%; Known Related Substances HN67003 ([2]; Initial): 0.15%; Known Related Substances HN75076 ([2]; Initial): 0.01%; Known Related Substances HN75083 ([2]; Initial): 0.23%; M6G Assay, Anhydrous basis ([2]; Initial): 88.49 % w/w; M6G Assay, As is basis ([2]; Initial): 80.62 % w/w; M6G Assay, Corrected for the salt form ([2]; Initial): 97.87 % w/w; Total Known ([2]; Initial): 1.08%; Total Related Substances ([2]; Initial): 1.72%; Total Unknown ([2]; Initial): 0.64%; overall stability comparison ([2]; overall review of Example 3 data): least stable; Moisture ([3]; 1 month, 25° C./60% RH): 4.28 % w/w; Moisture ([3]; 1 month, 40° C./75% RH): 5.93 % w/w; Moisture ([3]; 1 month, 60° C.): 4.68 % w/w; Moisture ([3]; 3 months, 25° C./60% RH): 5.54 % w/w; Moisture ([3]; 3 months, 40° C./75% RH): 8.31 % w/w; Moisture ([3]; Initial): 3.77 % w/w; Colour ([4]; 1 month, 25° C./60% RH): 0.244 Abs@420 nm; Colour ([4]; 1 month, 40° C./75% RH): 0.430 Abs@420 nm; Colour ([4]; 1 month, 60° C.): 1.714 Abs@420 nm; Colour ([4]; 3 months, 25° C./60% RH): 0.406 Abs@420 nm; Colour ([4]; 3 months, 40° C./75% RH): 1.056 Abs@420 nm; Colour ([4]; Initial): 0.136 Abs@420 nm; Appearance ([5]; 1 month, 25° C./60% RH): White crystalline powder; Appearance ([5]; 1 month, 40° C./75% RH): Slightly yellow crystalline powder; Appearance ([5]; 1 month, 60° C.): Pale yellow crystalline powder; Appearance ([5]; 3 months, 25° C./60% RH): Pale yellow crystalline powder; Appearance ([5]; 3 months, 40° C./75% RH): Slightly yellow crystalline powder; Appearance ([5]; Initial): White crystalline powder
